Key:
[1] = system: H2228 (Lung adenocarcinoma cell line); assay: cell proliferation inhibitory activity, WST-8 (Test Example 2); format: cell-based; conditions: Homo sapiens, NCI-H2228, 48 h; H2228, 2 days with compound, WST-8, Table 2
Description: (§1) Compounds RS1 to RS7 obtained in Synthesis Examples 1 to 7, and M-COPA synthesized in the same manner as in Synthesis Example 1 in Patent Document 1 were examined for cell proliferation inhibitory activity against human cultured cancer cells. The cancer cells used were eight human cancer cell lines (one skin cancer cell line, one ovarian cancer cell line, one prostate cancer cell line, two lung adenocarcinoma cell lines, one colorectal cancer cell line, two breast adenocarcinoma cell lines). The cancer cells of each type were seeded on a 96-well plate and cultured for 2 days, and cultured for 2 days with addition of serially diluted products of the compounds, and the cell proliferation was then measured by colorimetry with a water-soluble tetrazolium salt (WST-8). Thereafter, 50% cell proliferation inhibitory concentrations (GI50) were calculated from the cell proliferation curves.

[2] = system: SK-OV3 (Ovarian cancer cell line); assay: as above; format: cell-based; conditions: Homo sapiens, SK-OV-3, 48 h, SK-OV3, 2 days with compound
Description: as §1

[3] = system: DLD-1 (Colorectal cancer cell line); assay: as above; format: cell-based; conditions: Homo sapiens, 48 h, DLD-1, 2 days with compound
Description: as §1

[4] = system: Hs578t (Breast adenocarcinoma cell line); assay: as above; format: cell-based; conditions: Homo sapiens, Hs-578T, 48 h, 2 days with compound
Description: as §1

[5] = system: DU-145 (Prostate cancer cell line); assay: as above; format: cell-based; conditions: Homo sapiens, 48 h, DU-145, 2 days with compound
Description: as §1

[6] = system: MCF-7 (Breast adenocarcinoma cell line); assay: as above; format: cell-based; conditions: Homo sapiens, MCF7, 48 h, MCF-7, 2 days with compound
Description: as §1

[7] = system: H1650 (Lung adenocarcinoma cell line); assay: as above; format: cell-based; conditions: Homo sapiens, NCI-H1650, 48 h; H1650, 2 days with compound, WST-8, Table 2
Description: as §1

[8] = system: Hs925t (Skin cancer cell line); assay: as above; format: cell-based; conditions: Homo sapiens, 48 h, 2 days with compound
Description: as §1

GIST-T1 cells = assay: cell proliferation inhibitory activity, ATP production (Test Example 1); format: cell-based, human; conditions: for IC50: Homo sapiens, GISTT1, 48 h, GIST-T1 cells (KIT^Δ560-578, imatinib-sensitive), cultured 2 days with compound, ATP production, n=3; for inhibition of cell proliferation (in words): GIST-T1 cells, FIG. 1
Description: (§2) Compounds RS1, RS2, and RS5 obtained in Synthesis Examples 1, 2, and 5, and M-COPA synthesized in the same manner as in Synthesis Example 1 in Patent Document 1 were examined for cell proliferation inhibitory activity against human cultured cancer cells with KIT tyrosine kinase mutation. The human cultured cancer cells used were GIST-T1 cells (KIT^Δ560-578. imatinib-sensitive) and GIST-R9 cells (KIV^Δ560-578/D820V, imatinib-resistant) as gastrointestinal stromal tumor cell lines, and HMC-1.2 cells (KIT^V560G/D816V, imatinib-resistant) as a mast cell leukemia cell line. The cancer cells of each type were seeded on a 96-well plate and cultured overnight, and cultured for 2 days with addition of serially diluted products of the compounds, and the cell proliferation was then measured by quantifying the ATP production (n=3). FIG. 1 to FIG. 3 show the cell proliferation curves for the GIST-T1 cells, GIST-R9 cells, and HMC-1.2 cells.

HMC-1.2 cells = assay: as above; format: cell-based, human; conditions: for IC50: Homo sapiens, 48 h, HMC-1.2 cells (KIT^V560G/D816V, imatinib-resistant), cultured 2 days with compound, ATP production, n=3; for inhibition of cell proliferation (in words): HMC-1.2 cells, FIG. 3
Description: as §2

GIST-R9 cells = assay: as above; format: cell-based, human; conditions: for IC50: Homo sapiens, 48 h, GIST-R9 cells (KIV^Δ560-578/D820V, imatinib-resistant), cultured 2 days with compound, ATP production, n=3; for inhibition of cell proliferation (in words): GIST-R9 cells, FIG. 2
Description: as §2

[9] = system: H2228 (Lung adenocarcinoma cell line); assay: cell proliferation inhibitory activity, WST-8 (Test Example 3); format: cell-based; conditions: Homo sapiens, NCI-H2228, 48 h; H2228, 2 days with compound, WST-8, Table 3
Method: (§3) Compounds RS8 to RS10 obtained in Synthesis Examples 8 to 10 were examined for cell proliferation inhibitory activity against human cultured cancer cells. The cancer cells used were two human lung adenocarcinoma cell lines and one human lung squamous cell carcinoma cell line. The cancer cells of each type were seeded on a 96-well plate and cultured for 2 days, and cultured for 2 days with addition of serially diluted products of the compounds, and the cell proliferation was then measured by colorimetry with a water-soluble tetrazolium salt (WST-8). Thereafter, 50% cell proliferation inhibitory concentrations (GI50) were calculated from the cell proliferation curves.

[10] = system: H1650 (Lung adenocarcinoma cell line); assay: as above; format: cell-based; conditions: Homo sapiens, NCI-H1650, 48 h; H1650, 2 days with compound, WST-8, Table 3
Method: as §3

[11] = system: H226 (Lung squamous cell carcinoma cell line); assay: as above; format: cell-based; conditions: Homo sapiens, NCI-H226, 48 h; H226, 2 days with compound, WST-8, Table 3
Method: as §3

SMILES | GI50 [1] | GI50 [2] | GI50 [3] | GI50 [4] | GI50 [5] | GI50 [6] | GI50 [7] | GI50 [8] | IC50 (GIST-T1 cells) | IC50 (HMC-1.2 cells) | IC50 (GIST-R9 cells) | inhibition of cell proliferation (in words) (GIST-T1 cells) | inhibition of cell proliferation (in words) (HMC-1.2 cells) | inhibition of cell proliferation (in words) (GIST-R9 cells) | GI50 [9] | GI50 [10] | GI50 [11]
C[C@H]1[C@@H]2[C@@H](/C=C/C=C(\Br)C(=O)NCc3cncs3)[C@@H](C)C=C[C@H]2CC[C@@H]1O [RS6, (2Z,4E)-2-Bromo-5-((1′S,2′S,4′aR,7′S,8′S,8′aS)-7′-hydroxy-2′,8′-dimethyl-1′,2′,4′a,5′,6′,7′,8′,8′a-octahydronaphthalen-1′-yl)-N-(thiazol-5″-ylmethyl)penta-2,4-dienamide] | 100 nM | 5 nM | 40 nM | 30 nM | 50 nM | 100 nM | 100 nM | 3 nM |  |  |  |  |  |  |  |  | 
C/C(=C\C=C\[C@@H]1[C@H]2[C@H](C)[C@@H](O)[C@H](C)C[C@@H]2C=C[C@@H]1C)C(=O)NCc1cccnc1 [M-COPA, 2-methylcoprophilinamide, reference compound] | 40 nM | 30 nM | 30 nM | 40 nM | 100 nM | 350 nM | 80 nM | 50 nM | 347 ± 21 nM | 86 ± 9 nM | 528 ± 59 nM |  |  |  |  |  | 
C[C@@H]1[C@@H](O)[C@H](C)C[C@@H]2C=C[C@H](C)[C@H](/C=C/C=C(\Br)C(=O)NCc3cocn3)[C@@H]12 [RS3, (2Z,4E)-2-Bromo-5-((1′S,2′S,4′aR,6′R,7′S,8′S,8′aS)-7′-hydroxy-2′,6′,8′-trimethyl-1′,2′,4′a,5′,6′,7′,8′,8′a-octahydronaphthalen-1′-yl)-N-(oxazol-4″-ylmethyl)penta-2,4-dienamide] | 50 nM | 30 nM | 30 nM | 3 nM | 200 nM | 300 nM | 80 nM | 30 nM |  |  |  |  |  |  |  |  | 
C[C@@H]1[C@@H](O)[C@H](C)C[C@@H]2C=C[C@H](C)[C@H](/C=C/C=C(\Br)C(=O)NCc3nccs3)[C@@H]12 [RS4, (2Z,4E)-2-Bromo-5-((1′S,2′S,4′aR,6′R,7′S,8′S,8′aS)-7′-hydroxy-2′,6′,8′-trimethyl-1′,2′,4′a,5′,6′,7′,8′,8′a-octahydronaphthalen-1′-yl)-N-(thiazol-2″-ylmethyl)penta-2,4-dienamide] | 70 nM | 40 nM | 40 nM | 30 nM | 300 nM | 500 nM | 70 nM | 10 nM |  |  |  |  |  |  |  |  | 
C[C@@H]1[C@@H](O)[C@H](C)C[C@@H]2C=C[C@H](C)[C@H](/C=C/C=C(\Br)C(=O)NCc3cccnc3)[C@@H]12 [RS5, (2Z,4E)-2-Bromo-5-((1′S,2′S,4′aR,6′R,7′S,8′S,8′aS)-7′-hydroxy-2′,6′,8′-trimethyl-1′,2′,4′a,5′,6′,7′,8′,8′a-octahydronaphthalen-1′-yl)-N-(pyridin-3″-ylmethyl)penta-2,4-dienamide] | 30 nM | 1 nM | 0.3 nM | 30 nM | 10 nM | 80 nM | 50 nM | 0.1 nM | 169 nM | 42 nM | 292 nM | in a concentration-dependent manner | in a concentration-dependent manner | in a concentration-dependent manner |  |  | 
C[C@@H]1[C@@H](O)[C@H](C)C[C@@H]2C=C[C@H](C)[C@H](/C=C/C=C(\Br)C(=O)NCc3ccccn3)[C@@H]12 [RS8, (2Z,4E)-2-Bromo-5-((1′S,2′S,4′aR,6′R,7′S,8′S,8′aS)-7′-hydroxy-2′,6′,8′-trimethyl-1′,2′,4′a,5′,6′,7′,8′,8′a-octahydronaphthalen-1′-yl)-N-(pyridin-2″-ylmethyl)penta-2,4-dienamide] |  |  |  |  |  |  |  |  |  |  |  |  |  |  | 300 nM | 300 nM | 40 nM
C[C@H]1[C@@H]2[C@@H](/C=C/C=C(\Br)C(=O)NCc3cccnc3)[C@@H](C)C=C[C@H]2CC[C@@H]1O [RS7, (2Z,4E)-2-Bromo-5-((1′S,2′S,4′aR,7′S,8′S,8′aS)-7′-hydroxy-2′,8′-dimethyl-1′,2′,4′a,5′,6′,7′,8′,8′a-octahydronaphthalen-1′-yl)-N-(pyridin-3″-ylmethyl)penta-2,4-dienamide] | 1000 nM | 50 nM | 30 nM | 10 nM | 300 nM | 1000 nM | 100 nM | 30 nM |  |  |  |  |  |  |  |  | 
C[C@@H]1[C@@H](O)[C@H](C)C[C@@H]2C=C[C@H](C)[C@H](/C=C/C=C(\Br)C(=O)NCc3cnco3)[C@@H]12 [RS1, (2Z,4E)-2-Bromo-5-((1′S,2′S,4′aR,6′R,7′S,8′S,8′aS)-7′-hydroxy-2′,6′,8′-trimethyl-1′,2′,4′a,5′,6′,7′,8′,8′a-octahydronaphthalen-1′-yl)-N-(oxazol-5″-ylmethyl)penta-2,4-dienamide] | 10 nM | 5 nM | 3 nM | 3 nM | 40 nM | 30 nM | 5 nM | 1 nM | 268 nM | 50 nM | 363 nM | in a concentration-dependent manner | in a concentration-dependent manner | in a concentration-dependent manner |  |  | 
C[C@@H]1[C@@H](O)[C@H](C)C[C@@H]2C=C[C@H](C)[C@H](/C=C/C=C(\Br)C(=O)OCc3cccnc3)[C@@H]12 [RS9, Pyridin-3″-ylmethyl (2Z,4E)-2-bromo-5-((1′S,2′S,4′aR,6′R,7′S,8′S,8′aS)7′-hydroxy-2′,6′,8′-trimethyl-1′,2′,4′a,5′,6′,7′,8′,8′a-octahydronaphthalen-1′-yl)penta-2,4-dienoate] |  |  |  |  |  |  |  |  |  |  |  |  |  |  | 400 nM | 200 nM | 40 nM
C[C@@H]1[C@@H](O)[C@H](C)C[C@@H]2C=C[C@H](C)[C@H](/C=C/C=C(\Br)C(=O)NCc3cncs3)[C@@H]12 [RS2, (2Z,4E)-2-Bromo-5-((1′S,2′S,4′aR,6′R,7′S,8′S,8′aS)-7′-hydroxy-2′,6′,8′-trimethyl-1′,2′,4′a,5′,6′,7′,8′,8′a-octahydronaphthalen-1′-yl)-N-(thiazol-5″-ylmethyl)penta-2,4-dienamide] | 40 nM | 3 nM | 1 nM | 30 nM | 10 nM | 30 nM | 30 nM | 0.3 nM | 128 nM | 37 nM | 169 nM | in a concentration-dependent manner | in a concentration-dependent manner | in a concentration-dependent manner |  |  | 

Reference: patent publication US12570618B2, “Compound, production method therefor, and pharmaceutical composition” (TOKYO UNIVERSITY OF SCIENCE FOUNDATION, priority 2021, dated 2026)
